Laboratory results published in patent publication US20250186541A1, “DLL3 TARGETING PEPTIDES AND CONSTRUCTS THEREOF” (MARIANA ONCOLOGY INC., priority 2023, published 2025).
Numbered stars: 1 amine (or outer) side, 2 acyl side, 3 side chain; on linkers, the order of the positions; unused ones are H or OH. Bridge positions count the residues as written; N and C are the ends. Square brackets hold non-standard residues; d marks the D form. Triazole bridges read from a SMILES are 1,4-linked. Peptide text beside a SMILES is read from it. * marks the point of attachment. Ala(piperidin-4-yl) = O=C([C@H](CC1CCN([*:3])CC1)N[*:1])[*:2]; DOTA = O=C(O)CN1CCN(CC(=O)O)CCN(CC(=O)*)CCN(CC(=O)O)CC1; 1Nal = N[C@@H](Cc1cccc2ccccc12)C(=O)O; 2Nal = N[C@@H](Cc1ccc2ccccc2c1)C(=O)O; Phe(2-Me) = Cc1ccccc1C[C@H](N)C(=O)O; Aha = [N-]=[N+]=NCC[C@H](N)C(=O)O; tBuAla = CC(C)(C)C[C@H](N)C(=O)O; AllylGly = C=CC[C@H](N)C(=O)O; αMeP = C[C@@]1(C(=O)O)CCCN1; Pra = C#CC[C@H](N)C(=O)O; Dap = NC[C@H](N)C(=O)O

molecular target: T1, human DLL3 (Homo sapiens, UniProt Q9NYJ7); experiment: Affinity determination by Surface Plasmon Resonance (SPR), Biacore, 1:1 binding model; conditions: biotinylated human DLL3 on streptavidin chip, 25° C.; NB = nonbinding
T1 construct: biotin (biotinylated)
T1 sequence (Q9NYJ7 27-618): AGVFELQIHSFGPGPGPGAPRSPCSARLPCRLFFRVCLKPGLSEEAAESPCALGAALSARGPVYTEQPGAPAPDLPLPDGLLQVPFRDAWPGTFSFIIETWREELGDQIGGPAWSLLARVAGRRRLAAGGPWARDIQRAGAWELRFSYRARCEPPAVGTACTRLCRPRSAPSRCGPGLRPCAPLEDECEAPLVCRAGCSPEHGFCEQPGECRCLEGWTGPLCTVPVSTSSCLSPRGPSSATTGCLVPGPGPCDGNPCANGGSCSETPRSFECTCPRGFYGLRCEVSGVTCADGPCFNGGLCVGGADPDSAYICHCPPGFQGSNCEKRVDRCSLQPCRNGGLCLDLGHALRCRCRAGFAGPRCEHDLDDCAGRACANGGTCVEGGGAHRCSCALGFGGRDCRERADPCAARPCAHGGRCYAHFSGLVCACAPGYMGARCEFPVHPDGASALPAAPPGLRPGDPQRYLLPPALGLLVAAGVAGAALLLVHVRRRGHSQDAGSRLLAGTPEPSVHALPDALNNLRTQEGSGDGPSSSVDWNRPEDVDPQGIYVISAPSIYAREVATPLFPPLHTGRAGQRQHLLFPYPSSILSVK
Procedure: Example 3. Binding Affinity of Targeting Moieties Polypeptides to DLL3 Affinity Determination by Surface Plasmon Resonance (SPR)
SPR studies were performed on the compounds disclosed herein using the following protocol. […] Biotinylated target ligand human DLL3 was immobilized on a streptavidin sensor chip. A reference surface was set up for nonspecific binding and refractive index changes. For analysis of the kinetics of interactions, varying concentrations of samples were injected at a flow rate of 100 μL/min using running buffer containing 20 mM phosphate buffer with 2.7 mM KCl, 137 mM NaCl, 0.05% Surfactant P20 and 2% DMSO. Sensorgram curves were fitted with 1:1 binding model, and affinity and kinetic parameters were obtained using Biacore Insight evaluation 4.0. software.

Compared with `CC(=O)N[C@H](C)C(=O)N[C@@H](CO)C(=O)N[C@@H](CC(=O)O)C(=O)N[C@H]1CSSC[C@@H](C(=O)N2CCC[C@@]2(C)C(=O)N[C@@H](Cc2ccccc2)C(=O)N[C@@H](CC(=O)O)C(N)=O)NC(=O)[C@H](CC(N)=O)NC(=O)[C@H](Cc2ccc3ccccc3c2)NC(=O)[C@H](CC2CCN(C(=O)CN3CCN(CC(=O)O)CCN(CC(=O)O)CCN(CC(=O)O)CC3)CC2)NC(=O)[C@H](CC(C)(C)C)NC(=O)[C@H](Cc2cccc3ccccc23)NC1=O` [Cpd #157, Ac-(D-Ala)-S-D-C(3)-(1Nal)-(t-Bu-Ala)-[3-(4-piperidinyl-DOTA)-Ala]-(2Nal)-N-C(3)-(aMe-P)-F -D-CONH2] (Ac-[dA]SDC[1Nal][tBuAla][Ala(piperidin-4-yl)](DOTA)[2Nal]NC[αMeP]FD-NH2; disulfide 4-10), `C[C@@H](NC(=O)CN1CCN(CC(=O)O)CCN(CC(=O)O)CCN(CC(=O)O)CC1)C(=O)N[C@@H](CO)C(=O)N[C@@H](CC(=O)O)C(=O)N[C@H]1C/C=C/C[C@@H](C(=O)N2CCC[C@@]2(C)C(=O)N[C@@H](Cc2ccccc2)C(=O)N[C@@H](CC(=O)O)C(N)=O)NC(=O)[C@H](CC(N)=O)NC(=O)[C@H](Cc2ccc3ccccc3c2)NC(=O)[C@H](CC2CCNCC2)NC(=O)[C@H](CC(C)(C)C)NC(=O)[C@H](Cc2cccc3ccccc23)NC1=O` [Cpd #196, DOTA-(D-Ala)-S-D-AllyG(4)-(1Nal)-(t-Bu-Ala)-[3-(4-piperidinyl)-Ala]-(2Nal)-N-AllyG(4)-(aMe-P)-F-D-CONH2] ({DOTA}-[dA]SD[AllylGly][1Nal][tBuAla][Ala(piperidin-4-yl)][2Nal]N[AllylGly][αMeP]FD-NH2; staple (E) 4-10) is 2.9-fold higher in Kd: 0.18 nM for the first, 0.52 nM for the second.

`CC(=O)N[C@H](C)C(=O)N[C@@H](CO)C(=O)N[C@@H](CC(=O)O)C(=O)N[C@H]1CCC(=O)NC[C@@H](C(=O)N2CCC[C@@]2(C)C(=O)N[C@@H](Cc2ccccc2C)C(=O)N[C@@H](CC(=O)O)C(=O)N[C@H](CCCCNC(=O)CN2CCN(CC(=O)O)CCN(CC(=O)O)CCN(CC(=O)O)CC2)C(N)=O)NC(=O)[C@H](CC(N)=O)NC(=O)[C@H](Cc2ccc3ccccc3c2)NC(=O)[C@H](CCC(N)=O)NC(=O)[C@H](CC(C)(C)C)NC(=O)[C@H](Cc2cccc3ccccc23)NC1=O` [Cpd #160, Ac-(D-Ala)-S-D-Glu(2)-(1Nal)-(t-Bu-Ala)-Q-(2Nal)-N-Dap(2)-(aMe-P)-(2Me-F)-D-D-Lys(DOTA)-CONH2] (Ac-[dA]SDE[1Nal][tBuAla]Q[2Nal]N[Dap][αMeP][Phe(2-Me)]D[dK](DOTA)-NH2; lactam 4-10) and `CC(=O)N[C@H](C)C(=O)N[C@@H](CO)C(=O)N[C@@H](CC(=O)O)C(=O)N[C@H]1Cc2cn(nn2)CC[C@@H](C(=O)N2CCC[C@@]2(C)C(=O)N[C@@H](Cc2ccccc2)C(=O)N[C@@H](CC(=O)O)C(=O)N[C@H](CCCCNC(=O)CN2CCN(CC(=O)O)CCN(CC(=O)O)CCN(CC(=O)O)CC2)C(N)=O)NC(=O)[C@H](CC(N)=O)NC(=O)[C@H](Cc2ccc3ccccc3c2)NC(=O)[C@H](CCC(N)=O)NC(=O)[C@H](CC(C)(C)C)NC(=O)[C@H](Cc2cccc3ccccc23)NC1=O` [Cpd #163, Ac-(D-Ala)-S-D-[Pra(5)]-(1Nal)-(t-Bu-Ala)-Q-(2Nal)-N-[DabN3(5)]-(aMe-P)-F -D-D-Lys(DOTA)-CONH2] (Ac-[dA]SD[Pra][1Nal][tBuAla]Q[2Nal]N[Aha][αMeP]FD[dK](DOTA)-NH2; triazole 4-10) cannot be ordered by Kd: > 300 nM for the first, > 300 nM for the second.

First: CC(=O)N[C@H](C)C(=O)N[C@@H](CO)C(=O)N[C@@H](CC(=O)O)C(=O)N[C@H]1Cc2cnnn2CC[C@@H](C(=O)N2CCC[C@@]2(C)C(=O)N[C@@H](Cc2ccccc2)C(=O)N[C@@H](CC(=O)O)C(=O)N[C@H](CCCCNC(=O)CN2CCN(CC(=O)O)CCN(CC(=O)O)CCN(CC(=O)O)CC2)C(N)=O)NC(=O)[C@H](CC(N)=O)NC(=O)[C@H](Cc2ccc3ccccc3c2)NC(=O)[C@H](CCC(N)=O)NC(=O)[C@H](CC(C)(C)C)NC(=O)[C@H](Cc2cccc3ccccc23)NC1=O [Cpd #164, Ac-(D-Ala)-S-D-[Pra(6)]-(1Nal)-(t-Bu-Ala)-Q-(2Nal)-N-[DabN3(6)]-(aMe-P)-F -D-D-Lys(DOTA)-CONH2]
Second: CC(=O)N[C@H](C)C(=O)N[C@@H](CO)C(=O)N[C@@](C)(CC(=O)O)C(=O)N[C@H]1CCCC[C@@H](C(=O)N2CCC[C@@]2(C)C(=O)N[C@@H](Cc2ccccc2)C(=O)N[C@@H](CC(=O)O)C(N)=O)NC(=O)[C@H](CC(N)=O)NC(=O)[C@H](Cc2ccc3ccccc3c2)NC(=O)[C@H](Cc2ccc(CNC(=O)CN3CCN(CC(=O)O)CCN(CC(=O)O)CCN(CC(=O)O)CC3)cc2)NC(=O)[C@H](CC(C)(C)C)NC(=O)[C@H](Cc2cccc3ccccc23)NC1=O [Cpd #205, Ac-(D-Ala)-S-(aMe-Asp)-AllyG(4)*-(1Nal)-(t-Bu-Ala)-[PAF(DOTA)]-(2Nal)-N-AllyG(4)*-(aMe-P)-F-D-CONH2]
The Kd of the first is higher: > 30 nM for the first, 0.082 nM for the second.

`CC(=O)N[C@@H](CO)C(=O)N[C@@H](CC(=O)O)C(=O)N[C@H]1CSSC[C@@H](C(=O)N2CCC[C@H]2C(=O)N[C@@H](Cc2ccccc2)C(=O)N[C@@H](CC(=O)O)C(N)=O)NC(=O)[C@H](CC(N)=O)NC(=O)[C@H](Cc2c[nH]c3ccccc23)NC(=O)[C@H](CCC(N)=O)NC(=O)[C@H](CC(C)C)NC(=O)[C@H](Cc2c[nH]c3ccccc23)NC1=O` [compound 5, Ac-S-D-C(3)-W-L-Q-W-N-C(3)-P-F-D-CONH2] (Ac-SDCWLQWNCPFD-NH2; disulfide 3-9) and `CSCC[C@H](NC(C)=O)C(=O)N[C@@H](CO)C(=O)N[C@@H](CC(=O)O)C(=O)N[C@H]1CSSC[C@@H](C(=O)N2CCC[C@H]2C(=O)N[C@@H](Cc2ccccc2)C(=O)N[C@@H](CC(=O)O)C(N)=O)NC(=O)[C@@H](C)NC(=O)[C@H](Cc2c[nH]c3ccccc23)NC(=O)[C@H](CCC(N)=O)NC(=O)[C@H](CC(C)C)NC(=O)[C@H](Cc2c[nH]c3ccccc23)NC1=O` [compound 15, Ac-M-S-D-C(3)-W-L-Q-W-(D-Ala)-C(3)-P-F-D-CONH2] (Ac-MSDCWLQW[dA]CPFD-NH2; disulfide 4-10) cannot be ordered by Kd: > 100 nM for the first, > 100 nM for the second.

`CSCC[C@H](NC(C)=O)C(=O)N[C@@H](CO)C(=O)N[C@@H](CC(=O)O)C(=O)N[C@H]1CSSC[C@@H](C(=O)N2CCC[C@H]2C(=O)N[C@@H](Cc2ccccc2)C(=O)N[C@@H](CC(=O)O)C(N)=O)NC(=O)[C@H](CC(N)=O)NC(=O)[C@H](Cc2c[nH]c3ccccc23)NC(=O)[C@H](CCC(N)=O)NC(=O)[C@H](CC(C)C)NC(=O)[C@@H](C)NC1=O` [compound 11, Ac-M-S-D-C(3)-(D-Ala)-L-Q-W-N-C(3)-P-F-D-CONH2] (Ac-MSDC[dA]LQWNCPFD-NH2; disulfide 4-10) and `CSCC[C@H](NC(C)=O)C(=O)N[C@@H](CO)C(=O)N[C@@H](CC(=O)O)C(=O)N[C@H]1CSSC[C@@H](C(=O)N2CCC[C@H]2C(=O)N[C@@H](Cc2ccccc2)C(=O)N[C@@H](CC(=O)O)C(N)=O)NC(=O)[C@H](CC(N)=O)NC(=O)[C@H](Cc2c[nH]c3ccccc23)NC(=O)[C@@H](C)NC(=O)[C@H](CC(C)C)NC(=O)[C@H](Cc2c[nH]c3ccccc23)NC1=O` [compound 13, Ac-M-S-D-C(3)-W-L-(D-Ala)-W-N-C(3)-P-F-D-CONH2] (Ac-MSDCWL[dA]WNCPFD-NH2; disulfide 4-10) cannot be ordered by Kd: > 100 nM for the first, > 100 nM for the second.
